Here are results for 25 compounds from patent US12629374B2, “Antimalarial agents” (Merck Sharp & Dohme LLC, priority 2020, dated 2026).

Broadly, the EC50 is the midpoint of the concentration-response curve.

The subject of one assay is ring stage parasites. Nature of the assay: Parasite growth potency assay, 72 hours, LDH readout. It counts as cell-based. The conditions noted are these: 72 h, parasite growth measured by LDH assay after 72 hours at 37° C.; 0.7% rings, 2% haematocrit; read-out: EC50. The method, boiled down: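 Parasite growth was quantified by LDH assay after a −80 °C freeze-thaw. Before that, compound was incubated for 72 h at 37 °C under humidified gas with ring-stage cultures adjusted to 0.7% parasitemia and 2% haematocrit in serum- and albumax-supplemented RPMI-Hepes.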
For `CCC1(CC)CC(=O)N([C@H](CCOC)c2cccc(C(=O)NC3c4ccccc4OC(C(F)(F)F)C3O)c2)C(=N)N1` (stereo partly drawn) [Example 151, [4,4-diethyl-1-[(1R)-1-[3-[[3-hydroxy-2-(trifluoromethyl)chroman-4-yl]carbamoyl]phenyl]-3-methoxy-propyl]-6-oxo-hexahydropyrimidin-2-ylidene]ammonium; 2,2,2-trifluoroacetate], the EC50 came to 1.1 nM.

As for `C#CCC[C@H](c1cccc(C(=O)N[C@H]2CC(C)(C)Oc3ccccc32)c1)N1C(=N)N[C@](C)(C(C)C)CC1=O` [Example 108A, [(4S)-1-[1-[3-[[(4S)-2,2-dimethylchroman-4-yl]carbamoyl]phenyl]pent-4-ynyl]-4-isopropyl-4-methyl-6-oxo-hexahydropyrimidin-2-ylidene]ammonium; 2,2,2-trifluoroacetate], the EC50 stood at 0.4 nM.

`CC[C@]1(CC(C)C)CC(=O)N(Cc2cc(F)cc(C(=O)N[C@H]3CCOc4ccccc43)c2)C(=N)N1` [Example 46, [(4S)-1-[[3-[[(4S)-chroman-4-yl]carbamoyl]-5-fluoro-phenyl]methyl]-4-ethyl-4-isobutyl-6-oxo-hexahydropyrimidin-2-ylidene]ammonium; 2,2,2-trifluoroacetate]: the EC50 is 10.4 nM.

On to `CCC1(CC)CC(=O)N(C(COC)c2cccc(C(=O)N[C@@H]3c4ccccc4OC(C)(C)[C@H]3O)c2)C(=N)N1` (stereo partly drawn) [Example 232, 3-[l-(4,4-diethyl-2-imino-6-oxo-hexahydropyrimidin-1-yl)-2-methoxy-ethyl]-N-[(3S,4R)-3-hydroxy-2,2-dimethyl-chroman-4-yl]benzamide], for which the EC50 is 0.32 nM.

In the case of `CCC1(CC)NC(=N)N(Cc2cc(F)cc(C(=O)N[C@H]3CCOc4ccccc43)c2)C(=O)C1C` (stereo partly drawn) [Example 42, [1-[[3-[[(4S)-chroman-4-yl]carbamoyl]-5-fluoro-phenyl]methyl]-4,4-diethyl-5-methyl-6-oxo-hexahydropyrimidin-2-ylidene]ammonium; 2,2,2-trifluoroacetate], the EC50 was 10.3 nM.

With `CC[C@]1(c2ccccc2)CC(=O)N(Cc2cc(F)cc(C(=O)N[C@@H]3c4ccccc4C[C@H]3O)c2)C(=N)N1` [Example 53, [(4R)-4-ethyl-1-[[3-fluoro-5-[[(1R,2R)-2-hydroxyindan-1-yl]carbamoyl]phenyl]methyl]-6-oxo-4-phenyl-hexahydropyrimidin-2-ylidene]ammonium; 2,2,2-trifluoroacetate], the EC50 is 25.3 nM.

Consider `CCC1(CC)CC(=O)N([C@H](CCOC)c2cccc(C(=O)NC3c4ccccc4CC3(C)O)c2)C(=N)N1` (stereo in doubt) [Example 142A, 3-[1-(4,4-diethyl-2-imino-6-oxo-hexahydropyrimidin-1-yl)-3-methoxy-propyl]-N-(2-hydroxy-2-methyl-indan-1-yl)benzamide], for which the EC50 turned out to be 2.1 nM.

In the case of `CCC1(CC)CC(=O)N(Cc2cccc(C(=O)N[C@@H]3c4cc(F)ccc4OC(C)(C)[C@H]3O)c2)C(=N)N1` (stereo in doubt) [Example 147, [4,4-diethyl-1-[[3-[(6-fluoro-3-hydroxy-2,2-dimethyl-chroman-4-yl)carbamoyl]phenyl]methyl]-6-oxo-hexahydropyrimidin-2-ylidene]ammonium; 2,2,2-trifluoroacetate], the EC50 was determined as 1 nM.

On to `CCC1(CC)CC(=O)N([C@H](CCOC)c2cccc(C(=O)N[C@H]3c4ccccc4OC3(C)C)c2)C(=N)N1` [Example 181B, [1-[(1R)-1-[3-[(2,2-dimethyl-3H-benzofuran-3-yl)carbamoyl]phenyl]-3-methoxy-propyl]-4,4-diethyl-6-oxo-hexahydropyrimidin-2-ylidene]ammonium; 2,2,2-trifluoroacetate], for which the EC50 was determined as 71.2 nM.

Regarding `CCC[C@H](c1cccc(C(=O)N[C@H]2c3ccccc3OC(C)(C)[C@@H]2O)c1)N1C(=N)NC(CC)(CC)CC1=O` [Example 119B, [4,4-diethyl-1-[(1R)-1-[3-[(3-hydroxy-2,2-dimethyl-chroman-4-yl)carbamoyl]phenyl]butyl]-6-oxo-hexahydropyrimidin-2-ylidene]ammonium; 2,2,2-trifluoroacetate], the EC50 was determined as 34 nM.

For `CCC1(CC)CC(=O)N([C@@H](c2cccc(C(=O)N[C@@H]3c4ccccc4C[C@H]3O)c2)C23CC(C2)C3)C(=N)N1` [Example 34, [1-[1-bicyclo[1.1.1]pentanyl-[3-[[(1R,2R)-2-hydroxyindan-1-yl]carbamoyl]phenyl]methyl]-4,4-diethyl-6-oxo-hexahydropyrimidin-2-ylidene]ammonium; 2,2,2-trifluoroacetate], the EC50 came out at 0.5 nM.

Take `CCC1(CC)CC(=O)N([C@H](CCOC)c2cncc(C(=O)N[C@@H]3c4ccccc4C[C@H]3O)c2)C(=N)N1` [Example 125, [4,4-diethyl-1-[1-[5-[[(1R,2R)-2-hydroxyindan-1-yl]carbamoyl]pyridin-1-ium-3-yl]-3-methoxy-propyl]-6-oxo-hexahydropyrimidin-2-ylidene]ammonium; 2,2,2-trifluoroacetate]: the 50% effective concentration (EC50) is 2.7 nM.

In the case of `CCC1(CC)CC(=O)N(Cc2ccc(F)c(C(=O)N[C@H]3CCOc4ccccc43)c2)C(=N)N1` [Example 21, [1-[[3-[[(4S)-chroman-4-yl]carbamoyl]-4-fluoro-phenyl]methyl]-4,4-diethyl-6-oxo-hexahydropyrimidin-2-ylidene]ammonium; 2,2,2-trifluoroacetate], the EC50 stood at 3.5 nM.

Turning to `CCC1(CC)CC(=O)N([C@H](CCOC)c2cccc(C(=O)NC3CC(C)(C)Oc4ccccc43)c2)C(=N)N1` (stereo in doubt) [Example 72B, [1-[1-[3-[(2,2-dimethylchroman-4-yl)carbamoyl]phenyl]-3-methoxy-propyl]-4,4-diethyl-6-oxo-hexahydropyrimidin-2-ylidene]ammonium; 2,2,2-trifluoroacetate], the EC50 stood at 0.3 nM.

Turning to `CCC1(CC)CC(=O)N([C@H](c2cccc(C(=O)N[C@@H]3c4ccccc4C[C@H]3O)c2)c2cccc(S(C)(=O)=O)c2)C(=N)N1` [Example 124B, [4,4-diethyl-1-[[3-[[(1R,2R)-2-hydroxyindan-1-yl]carbamoyl]phenyl]-(3-methylsulfonylphenyl)methyl]-6-oxo-hexahydropyrimidin-2-ylidene]ammonium; 2,2,2-trifluoroacetate], the EC50 turned out to be 53 nM.

With `CCC[C@H](c1cccc(C(=O)N[C@H]2c3ccccc3OCC2O)c1)N1C(=N)NC(CC)(CC)CC1=O` (stereo partly drawn) [Example 127A, 3-[(1R)-1-(4,4-diethyl-2-imino-6-oxo-hexahydropyrimidin-1-yl)butyl]-N-(3-hydroxychroman-4-yl)benzamide], the 50% effective concentration (EC50) amounted to 97.4 nM.

Turning to `CCC1(CC)CC(=O)N([C@H](CCOC(F)F)c2cccc(C(=O)N[C@H]3CC(C)(C)Oc4ccccc43)c2)C(=N)N1` [Example 160, [1-[3-(difluoromethoxy)-1-[3-[[(4S)-2,2-dimethylchroman-4-yl]carbamoyl]phenyl]propyl]-4,4-diethyl-6-oxo-hexahydropyrimidin-2-ylidene]ammonium; 2,2,2-trifluoroacetate], the EC50 worked out at 0.5 nM.

Regarding `CCC[C@@H](c1cc(C(=O)N[C@H]2CCOc3ccccc32)ccn1)N1C(=N)NC(CC)(CC)CC1=O` [Example 49B, [1-[1-[4-[[(4S)-chroman-4-yl]carbamoyl]pyridin-1-ium-2-yl]butyl]-4,4-diethyl-6-oxo-hexahydropyrimidin-2-ylidene]ammonium; 2,2,2-trifluoroacetate], the EC50 came out at 85 nM.

As for `CC[C@]1(C(C)C)CC(=O)N(Cc2cc(F)cc(C(=O)N[C@@H]3c4ccccc4C[C@H]3O)c2)C(=N)N1` [Example 45, [(4R)-4-ethyl-1-[[3-fluoro-5-[[(1R,2R)-2-hydroxyindan-1-yl]carbamoyl]phenyl]methyl]-4-isopropyl-6-oxo-hexahydropyrimidin-2-ylidene]ammonium; 2,2,2-trifluoroacetate], the EC50 is 2.6 nM.

The same assay, now with this note: parasite growth measured by LDH assay after 72 hours at 37° C.; 0.7% rings, 2% haematocrit; read-out: EC50.
As for `CCC[C@H](c1cccc(C(=O)N[C@H]2c3ccccc3CC2(C)O)c1)N1C(=N)NC(CC)(CC)CC1=O` (single isomer, unassigned) [Example 122C], the EC50 was 57.3 nM.

Turning to `CCC1(CC)CC(=O)N(C(CC(OC)C(F)(F)F)c2cccc(C(=O)N[C@@H]3c4ccccc4C[C@H]3O)c2)C(=N)N1` (single isomer, unassigned) [Example 238C], the EC50 came out at 2.32 nM.

As to `COCC[C@H](c1cc(F)cc(C(=O)N[C@@H]2c3ccccc3C[C@@]2(C)O)c1)N1C(=N)NC(C)(C)CC1=O` [Example 175A, 3-fluoro-N-[(1R,2R)-2-hydroxy-2-methyl-indan-1-yl]-5-[1-(2-imino-4,4-dimethyl-6-oxo-hexahydropyrimidin-1-yl)-3-methoxy-propyl]benzamide], the EC50 is 37.1 nM.

For `CCC1(CC)NC(=N)N([C@H](CCOC)c2cccc(C(=O)N[C@@H]3c4ccccc4C[C@H]3O)c2)C(=O)C1C` (stereo partly drawn) [Example 227B, 3-[(1R)-1-(4,4-diethyl-2-imino-5-methyl-6-oxo-hexahydropyrimidin-1-yl)-3-methoxy-propyl]-N-[(1R,2R)-2-hydroxyindan-1-yl]benzamide], the EC50 amounted to 1.16 nM.

Staying with this assay, now noted: parasite growth measured by LDH assay after 72 hours at 37° C.; 0.7% rings, 2% haematocrit; trifluoroacetate; read-out: EC50.
Regarding `CCC1(CC)NC(=N)N(Cc2cc(F)cc(C(=O)N[C@H]3CCOc4ccccc43)c2)C(=O)C1C` (stereo partly drawn) [Example 43, [1-[[3-[[(4S)-chroman-4-yl]carbamoyl]-5-fluoro-phenyl]methyl]-4,4-diethyl-5-methyl-6-oxo-hexahydropyrimidin-2-ylidene]ammonium; 2,2,2-trifluoroacetate], the EC50 was determined as 7.2 nM.

On to `CCC1(CC)CC(=O)N(Cc2cccc(C(=O)N[C@H]3C[C@H](C(F)(F)F)Oc4ccccc43)c2)C(=N)N1` (stereo in doubt) [Example 91A, [4,4-diethyl-6-oxo-1-[[3-[[2-(trifluoromethyl)chroman-4-yl]carbamoyl]phenyl]methyl]hexa-hydropyrimidin-2-ylidene]ammonium; 2,2,2-trifluoroacetate], for which the EC50 came to 1.9 nM.
